Among the test systems are A549 NSCLC; COLO 205 colon; EKVX NSCLC; MALME-3M melanoma; MCF7 breast; MOLT-4 leukemia; NCI/ADR-RES ovarian; SK-OV-3 ovarian; UACC-62 melanoma; UO-31 renal.
Holding throughout (experiment): NCI anticancer screen, dose series, 48 h

Several values for one entry are separate records, joined by “and”; a condition that tells them apart may be missing. Equal entries are not always repeated.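 1) Cells in 96-well plates. 2) Compound, 48 h, 5 concentrations. 3) Linear interpolation between surrounding doses. 4) Unreached endpoint = highest concentration. GI50 marks 50% less growth. At the TGI there is no net growth.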

For the compound `FC(F)(F)c1cccc(Nc2nccc(-c3cnn4nc(-c5ccccc5)ccc34)n2)c1`, the GI50 with A549 NSCLC was 5.36 µM; in the assay with COLO 205 colon, 11.8 µM; with EKVX NSCLC it was above 21.2 µM; with MALME-3M melanoma it was 7.23 µM; in the assay on MCF7 breast it was 6.82 µM; with MOLT-4 leukemia, above 16.5 µM. For the same compound, the GI50 in the assay with NCI/ADR-RES ovarian was 8.37 µM; with SK-OV-3 ovarian, above 22.6 µM; with UACC-62 melanoma, 14.4 µM; with UO-31 renal, 10.8 µM. The TGI was above 14.3 µM in the assay with A549 NSCLC; above 25 µM in the assay on COLO 205 colon; above 25 µM in the assay with EKVX NSCLC; 14.1 µM in the assay with MALME-3M melanoma; above 25 µM in the assay with MCF7 breast; above 25 µM with MOLT-4 leukemia. For the same compound, the TGI is above 21.7 µM with NCI/ADR-RES ovarian, above 25 µM with SK-OV-3 ovarian, above 25 µM in the assay on UACC-62 melanoma and above 23.1 µM with UO-31 renal.
On to `COc1cc([N+](=O)[O-])cc2c3c(n(C)c12)[C@@]1(C)CCC2c4ccc(OCc5ccccc5)cc4CCC2C1C3` (stereo not given in full), for which the GI50 with A549 NSCLC is 72.2 µM; in the assay with COLO 205 colon it was 29.3 µM; in the assay with EKVX NSCLC, 68.5 µM; in the assay with MALME-3M melanoma, above 100 µM; in the assay on MCF7 breast it was above 100 µM; in the assay with MOLT-4 leukemia it was above 100 µM. The GI50 was above 100 µM in the assay on NCI/ADR-RES ovarian, 54.5 µM in the assay on SK-OV-3 ovarian, above 100 µM with UACC-62 melanoma and above 100 µM with UO-31 renal. Besides, the TGI in the assay on A549 NSCLC, in the assay with COLO 205 colon, in the assay with EKVX NSCLC, in the assay on MALME-3M melanoma, with MCF7 breast and in the assay with MOLT-4 leukemia was above 100 µM in each case. For the same compound, the TGI in the assay with NCI/ADR-RES ovarian, in the assay with SK-OV-3 ovarian, with UACC-62 melanoma and in the assay on UO-31 renal was above 100 µM throughout.
In the case of `O=C1Nc2c(C(F)(F)F)cccc2[C@]1(c1ccc(O)cc1)c1ccc(OC(F)(F)F)cc1`, the GI50 was 5.26 µM in the assay on A549 NSCLC; 3.26 µM with COLO 205 colon; 8.09 µM in the assay with EKVX NSCLC; 13 µM in the assay on MALME-3M melanoma; 4.05 µM in the assay with MCF7 breast; 5.34 µM in the assay on MOLT-4 leukemia. Besides, the GI50 in the assay on NCI/ADR-RES ovarian was 8.78 µM; in the assay with SK-OV-3 ovarian, 17.3 µM; with UACC-62 melanoma, 11.9 µM; with UO-31 renal, 6.45 µM. Besides, the TGI in the assay on A549 NSCLC worked out at 20 µM; in the assay on COLO 205 colon it was 25.4 µM; in the assay on EKVX NSCLC it was 21.6 µM; with MALME-3M melanoma, 26.6 µM; in the assay with MCF7 breast, 16.9 µM; in the assay with MOLT-4 leukemia, 23.6 µM. In addition, the TGI in the assay with NCI/ADR-RES ovarian is 25.8 µM; with SK-OV-3 ovarian, 36.5 µM; in the assay with UACC-62 melanoma, 25 µM; in the assay with UO-31 renal, 20 µM.
As to `Oc1ccc(CN2CCC(N3CCCCC3)CC2)c2cccnc12`, the GI50 was 6.68 µM in the assay on A549 NSCLC; 48.4 µM in the assay on COLO 205 colon; 32.4 µM with EKVX NSCLC; 24.4 µM in the assay with MALME-3M melanoma; 21.5 µM in the assay on MCF7 breast; 19.9 µM in the assay with MOLT-4 leukemia. The GI50 was 24.2 µM in the assay on NCI/ADR-RES ovarian, 24.8 µM with SK-OV-3 ovarian, 4.87 µM in the assay with UACC-62 melanoma and 6.2 µM in the assay with UO-31 renal. For the same compound, the TGI in the assay on A549 NSCLC, with COLO 205 colon, in the assay on EKVX NSCLC, in the assay on MALME-3M melanoma, in the assay with MCF7 breast and in the assay on MOLT-4 leukemia was above 100 µM each time. Also, the TGI in the assay on NCI/ADR-RES ovarian is above 100 µM; in the assay with SK-OV-3 ovarian, above 100 µM; with UACC-62 melanoma, 67.5 µM; with UO-31 renal, 34.6 µM.
As for `CC[C@@H]1C(=O)N(C)c2cnc(Nc3ccc(C(=O)NC4CCN(C)CC4)cc3OC)nc2N1C1CCCC1`, the GI50 in the assay with A549 NSCLC was 0.00602 µM and < 0.0113 µM; with COLO 205 colon it was 0.00326 µM and < 0.01 µM; in the assay on EKVX NSCLC, 0.0263 µM and 0.161 µM; in the assay with MALME-3M melanoma, 1.12 µM and 1.37 µM; in the assay on MCF7 breast, 0.00331 µM and < 0.01 µM; in the assay on MOLT-4 leukemia it was 0.00387 µM and < 0.01 µM. Also, the GI50 with NCI/ADR-RES ovarian was 0.351 µM and 0.244 µM; in the assay on SK-OV-3 ovarian it was 0.00746 µM and < 0.01 µM; with UACC-62 melanoma it was 0.0101 µM and 0.0252 µM; in the assay on UO-31 renal it was 0.323 µM and 0.631 µM. Further, the TGI in the assay with A549 NSCLC is > 10 µM and 3.5 µM; in the assay on COLO 205 colon, 0.111 µM; in the assay on EKVX NSCLC it was > 10 µM and 21.5 µM; in the assay with MALME-3M melanoma it was 2.57 µM and 3.39 µM; with MCF7 breast it was > 4.96 µM and 5.55 µM; in the assay with MOLT-4 leukemia it was 1.39 µM and 0.579 µM. Also, the TGI in the assay on NCI/ADR-RES ovarian is > 10 µM and 19 µM; in the assay with SK-OV-3 ovarian it was 0.593 µM and 0.128 µM; with UACC-62 melanoma, > 4.41 µM and 4.21 µM; in the assay with UO-31 renal it was > 3.97 µM and 15.1 µM.

Values taken from PubChem BioAssay (NCI).
